From patent publication US11382867B2, “Apomorphine-palmitic acid cocrystal solid particle crystalline form” (LEUKOS BIOTECH, S. L., priority 2018, dated 2022)
Where a name gives a salt, the structure may show the parent alone.

How the values were obtained:
Solubility in water = assay type: physicochemical; conditions: water at RT
Protocol: Water was progressively added at RT to APO HCl (I) until complete dissolution was reached. Subsequently, the same volume of water was added at RT to the other salts in order to compare their solubility. The mixtures were stirred for 10-15 minutes to allow equilibration. As the salts remained insoluble, the suspensions were diluted with twice the original volume and allowed to equilibrate for another 10-15 minutes at RT.

[1] = In vivo comparative pharmacokinetic and tolerance study, subcutaneous administration; conditions: rats
Protocol: Apomorphine Hydrochloride (Apo-HCl) was administered subcutaneously to Sprague Dawley rats three times a day for six days (total of eighteen 0.1-mL administrations). Both test items were compared for tolerance and systemic exposure: blood samples were collected from the lateral vein of the tail from all animals on treatment days 1 and 5 at all groups from main animals, samples were analyzed for apomorphine level determination.

[2] = assay type: physicochemical; conditions: 40±2° C./75±5% RH, 1 week

Structure (SMILES)	solubility in water (Solubility in water)	volume of water for dissolution (Solubility in water; 10-15 minutes equilibration)	Apomorphine levels in blood (PK profile) [1]	stability [2]	AUC ([1]; compared with Apo-HCl)	Cmax ([1]; compared with Apo-HCl)
CN1CCc2cccc3c2[C@H]1Cc1ccc(O)c(O)c1-3 [APO HCl (I), Apomorphine hydrochloride]	soluble in water	54 V	rapid decrease of Apomorphine levels			
CCCCCCCCCCCCCCCC(=O)O.CCCCCCCCCCCCCCCC(=O)O.CN1CCc2cccc3c2[C@H]1Cc1ccc(O)c(O)c1-3 [Form O, Apo-Palmitic Acid (1:2)]			Sustained Apomorphine levels	remained stable	higher than Apo-HCl	lower than Apo-HCl
